The text below walks through data of patent publication US20230055713A1, “COMPOSITION FOR STRENGTHENING SKIN BARRIER OR MOISTURIZING SKIN COMPRISING TILIANIN” (COSMAX NBT, INC., priority 2021, published 2023).

Holding throughout (format): in vivo
Test [1] has as its system UVB-irradiated hairless mice. Description: Skin moisture content (Corneometer) on the dorsal skin of UVB-irradiated hairless mice. The conditions noted are these: T10 group: 10 mg/kg/week oral, 12 weeks. The procedure: (§1) Five-week-old female hairless mice (SKFI-1) were purchased from Orient Bio (Seongnam, Korea) as experimental animals. Diets of feed and water were freely given, and the animals were bred at the Yonsei Laboratory Animal Research Center (YLARC, Seoul, Korea) under conditions of 25° C. and 50 to 60% humidity for 12 hours. The hairless mice were randomly assigned to the following five groups: (i) a control group, (ii) a UVB-irradiated group (UVB), (iii) a UVB+100 mg/kg/day ARE-administered group (ARE100), (iv) a UVB+250 mg/Kg/day ARE-administered group (ARE250) and (v) UVB+10 mg/kg/week tilianin-administered group (T10). After one week of acclimatization, oral administrations of ARE and tilianin were performed daily for 12 weeks. […]
(§2) Before anesthetizing the hairless mice, the moisture content and the degree of transepidermal water loss (TEWL) were measured on the dorsal section of the hairless mice. Moisture content was measured using CORNEOMETER® 825 (CK Electronics GmbH) at a pressure of 1.1 to 1.5 N after contacting a probe to the skin surface. The TEWL which represents the amount of the evaporation of transepidermal water in the process of damage and recovery of a skin barrier was measured under conditions of 20 to 25° C. and 40 to 60% humidity using TEWAMETER® TM300 (CK Electronics GmbH) equipped with MULTI PROBE ADAPTER® MPA5 (CK Electronics GmbH).

The test system of test [2] is UVB-irradiated hairless mice. Description: Transepidermal water loss (TEWL, Tewameter) on the dorsal skin of UVB-irradiated hairless mice. The conditions noted are these: ARE 100/250 mg/kg/day or tilianin 10 mg/kg/week oral, 12 weeks, vs UVB group. The procedure:
as §1, §2

In test [3] the test system is hyaluronic acid. Description: Hyaluronic acid concentration in skin homogenate (ELISA) of UVB-irradiated hairless mice. The following applies: UVB+T10 group: 10 mg/kg/week oral, 12 weeks. The procedure: as §1, with “weeks. In this case, the hairless mice belonging to the CON group and the UVB groups were orally administered with saline instead of the samples.” for “weeks.”
Specifically, the skin tissues of the hairless mice of each group in Example 2-1 were homogenized with NP40 lysis buffer (Elpis Biotech, Daejeon, Korea). The concentration of hyaluronic acid in the homogenate was determined using the hyaluronic acid quantikine ELISA Kit (R&D Systems, Minneapolis, Minn., USA) according to the manufacturer's protocol. Absorbance was read at 450 nm using the VERSAMAX™ variable microplate reader (Molecular Devices, Inc., Sunnyvale, Calif., USA).
Background: ELISA stands for enzyme-linked immunosorbent assay.

Test [4] deals with HAS1. Description: HAS1 mRNA expression in skin tissue (RT-PCR) of UVB-irradiated hairless mice. The following applies: oral administration, 12 weeks, compared to the UVB-treated group. The procedure:
as §1, with “weeks. In this case, the hairless mice belonging to the CON group and the UVB groups were orally administered with saline instead of the samples. The hairless mice of the remaining groups except the CON group were irradiated with UVB, and the UVB irradiation was carried out using UV crosslinker CL-1000M (UVP) toward the back 3 times per week.” for “weeks.”
(§3) Specifically, mRNA was isolated from the skin tissues of each group in Example 2-1 using RNAISO™ Plus (Takara). The mRNA was quantified using the NANODROP™ 1000 spectrophotometer (Thermo Fisher Scientific Inc.). […]

For test [5], the system named is HAS2. Description: HAS2 mRNA expression in skin tissue (RT-PCR) of UVB-irradiated hairless mice. The conditions noted are these: oral administration, 12 weeks, compared to the UVB-treated group. The procedure:
as §1, with “weeks. In this case, the hairless mice belonging to the CON group and the UVB groups were orally administered with saline instead of the samples. The hairless mice of the remaining groups except the CON group were irradiated with UVB, and the UVB irradiation was carried out using UV crosslinker CL-1000M (UVP) toward the back 3 times per week.” for “weeks.”
as §3

The test system of test [6] is HAS3. Description: HAS3 mRNA expression in skin tissue (RT-PCR) of UVB-irradiated hairless mice. The conditions noted are these: oral administration, 12 weeks, compared to the UVB-treated group. The procedure: as §1, with “weeks. In this case, the hairless mice belonging to the CON group and the UVB groups were orally administered with saline instead of the samples. The hairless mice of the remaining groups except the CON group were irradiated with UVB, and the UVB irradiation was carried out using UV crosslinker CL-1000M (UVP) toward the back 3 times per week.” for “weeks.”
as §3

As for `COc1ccc(-c2cc(=O)c3c(O)cc(O[C@@H]4O[C@H](CO)[C@@H](O)[C@H](O)[C@H]4O)cc3o2)cc1` [tilianin], in test [1], the “moisture content in the skin” value is reported as “restored to normal levels”. Besides, in test [2], the “TEWL (transepidermal water loss)” value was “decreased to a significant level”. For the same compound, the “content of hyaluronic acid, increase compared to the UVB-treated group” value in test [3] turned out to be 42.26%. For the same compound, in test [4], the “mRNA expression level of HAS1” value is “significantly increased”. Also, in test [5], the “mRNA expression level of HAS2” value is listed as “significantly increased”. In test [6], the “mRNA expression level of HAS3” value is “significantly increased”.
